Test system: 282377-053-R-J1-PDC complex spheroid viability
Experiment: Anticancer human tumor 282377-053-R-J1-PDC patient-derived colon adenocarcinoma cell line growth inhibition [POLQ]
Details: for IC50: curve of first compound; for viability, T/C: stronger effect = lower value
Procedure, shortened: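 PDC + HUVEC + MSC complex spheroids; POLQ inhibitors ± partner drugs; top conc. at/near clinical Cmax, else 10 microM (SN-38 1 microM), half-log dilutions; 37 degrees C, 5% CO2.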

[1] = second compound 0.0316 µM, first compound 0.0316 µM
[2] = second compound 0.0316 µM, first compound 0.1 µM
[3] = second compound 0.0316 µM, first compound 0.316 µM
[4] = second compound 0.0316 µM, first compound 1 µM
[5] = second compound 0.1 µM, first compound 0.0316 µM
[6] = second compound 0.1 µM, first compound 0.1 µM
[7] = second compound 0.1 µM, first compound 0.316 µM
[8] = second compound 0.1 µM, first compound 1 µM
[9] = second compound 0.316 µM, first compound 0.0316 µM
[10] = second compound 0.316 µM, first compound 0.1 µM
[11] = second compound 0.316 µM, first compound 0.316 µM
[12] = second compound 0.316 µM, first compound 1 µM
[13] = second compound 1 µM, first compound 0.0316 µM
[14] = second compound 1 µM, first compound 0.1 µM
[15] = second compound 1 µM, first compound 0.316 µM
[16] = second compound 1 µM, first compound 1 µM
[17] = second compound 3.16 µM, first compound 0.0316 µM
[18] = second compound 3.16 µM, first compound 0.1 µM
[19] = second compound 3.16 µM, first compound 0.316 µM
[20] = second compound 3.16 µM, first compound 1 µM
[21] = second compound 10 µM, first compound 0.0316 µM
[22] = second compound 10 µM, first compound 0.1 µM
[23] = second compound 10 µM, first compound 0.316 µM
[24] = second compound 10 µM, first compound 1 µM
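Also: spheroids exposed to compounds for seven days.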
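For viability, T/C in this document: 100% = DMSO vehicle control viability.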

For `C=CCn1c(=O)c2cnc(Nc3ccc(N4CCN(C)CC4)cc3)nc2n1-c1cccc(C(C)(C)O)n1` + Cc1cccc(N(C)C(=O)C2C(O)CCN2c2nc(C)cc(C(F)(F)F)c2C#N)c1, the IC50 (second compound 0.0316 µM) was > 1 µM, the IC50 (second compound 0.1 µM) was > 1 µM and the IC50 (second compound 0.316 µM) was > 1 µM. For the same compound, the IC50 (second compound 1 µM) was > 1 µM, the IC50 (second compound 3.16 µM) was > 1 µM and the IC50 (second compound 10 µM) was > 1 µM. It also gave a viability, T/C (second compound 0.0316 µM, first compound 0.00316 µM) of 106%, a viability, T/C (second compound 0.0316 µM, first compound 0.01 µM) of 107% and a viability, T/C [1] of 107%. For the same compound, the viability, T/C [2] was 96.9%, the viability, T/C [3] was 93.6% and the viability, T/C [4] was 76.6%. It also gave a viability, T/C (second compound 0.1 µM, first compound 0.00316 µM) of 95.6%, a viability, T/C (second compound 0.1 µM, first compound 0.01 µM) of 110% and a viability, T/C [5] of 94.3%. The viability, T/C [6] was 102%, the viability, T/C [7] was 92.2% and the viability, T/C [8] was 68.4%. The viability, T/C (second compound 0.316 µM, first compound 0.00316 µM) was 107%, the viability, T/C (second compound 0.316 µM, first compound 0.01 µM) was 103% and the viability, T/C [9] was 96.8%. The viability, T/C [10] was 91.1%, the viability, T/C [11] was 90.6% and the viability, T/C [12] was 71.8%. For the same compound, the viability, T/C (second compound 1 µM, first compound 0.00316 µM) was 109%, the viability, T/C (second compound 1 µM, first compound 0.01 µM) was 97% and the viability, T/C [13] was 94.8%. For the same compound, the viability, T/C [14] was 89.1%, the viability, T/C [15] was 89.2% and the viability, T/C [16] was 73%. The viability, T/C (second compound 3.16 µM, first compound 0.00316 µM) was 104%, the viability, T/C (second compound 3.16 µM, first compound 0.01 µM) was 102% and the viability, T/C [17] was 102%. The viability, T/C [18] was 93.2%, the viability, T/C [19] was 98.3% and the viability, T/C [20] was 70.2%. It also gave a viability, T/C (second compound 10 µM, first compound 0.00316 µM) of 99.9%, a viability, T/C (second compound 10 µM, first compound 0.01 µM) of 103% and a viability, T/C [21] of 93.7%. For the same compound, the viability, T/C [22] was 98.9%, the viability, T/C [23] was 94.3% and the viability, T/C [24] was 85.4%.

With `O=C(Nc1ccc(O)c(NS(=O)(=O)c2ccc(F)cc2)c1)c1ccc(-c2ccccc2)cc1` + Cc1cccc(N(C)C(=O)C2C(O)CCN2c2nc(C)cc(C(F)(F)F)c2C#N)c1 the IC50 (second compound 0.0316 µM) was > 10 µM, the IC50 (second compound 0.1 µM) was > 10 µM and the IC50 (second compound 0.316 µM) was > 10 µM. The IC50 (second compound 1 µM) was > 10 µM, the IC50 (second compound 3.16 µM) was > 10 µM and the IC50 (second compound 10 µM) was > 10 µM. It also gave a viability, T/C [1] of 122%, a viability, T/C [2] of 119% and a viability, T/C [3] of 98.4%. The viability, T/C [4] was 102%, the viability, T/C (second compound 0.0316 µM, first compound 3.16 µM) was 107% and the viability, T/C (second compound 0.0316 µM, first compound 10 µM) was 116%. For the same compound, the viability, T/C [5] was 106%, the viability, T/C [6] was 117% and the viability, T/C [7] was 99.5%. It also gave a viability, T/C [8] of 108%, a viability, T/C (second compound 0.1 µM, first compound 3.16 µM) of 124% and a viability, T/C (second compound 0.1 µM, first compound 10 µM) of 118%. For the same compound, the viability, T/C [9] was 104%, the viability, T/C [10] was 107% and the viability, T/C [11] was 106%. It also gave a viability, T/C [12] of 103%, a viability, T/C (second compound 0.316 µM, first compound 3.16 µM) of 116% and a viability, T/C (second compound 0.316 µM, first compound 10 µM) of 120%. For the same compound, the viability, T/C [13] was 106%, the viability, T/C [14] was 110% and the viability, T/C [15] was 99.8%. The viability, T/C [16] was 109%, the viability, T/C (second compound 1 µM, first compound 3.16 µM) was 117% and the viability, T/C (second compound 1 µM, first compound 10 µM) was 119%. For the same compound, the viability, T/C [17] was 112%, the viability, T/C [18] was 118% and the viability, T/C [19] was 104%. The viability, T/C [20] was 108%, the viability, T/C (second compound 3.16 µM, first compound 3.16 µM) was 126% and the viability, T/C (second compound 3.16 µM, first compound 10 µM) was 115%. The viability, T/C [21] was 106%, the viability, T/C [22] was 105% and the viability, T/C [23] was 99.7%. It also gave a viability, T/C [24] of 97%, a viability, T/C (second compound 10 µM, first compound 3.16 µM) of 106% and a viability, T/C (second compound 10 µM, first compound 10 µM) of 115%.
